Experimental data as given in patent US4311700A, “Pyrimidobenzodiazepinones, their use and medicaments containing them” (priority 1979, dated 1982).

Columns and labels:
[1] = Determination of toxicity, intravenous, mice; conditions: mouse, in vivo, i.v., female NMRI mice, 7 days observation, read-out: Toxicity LD50 administered intravenously to mice
Experimental: LD50 = the dose at which 50% of the animals die
The toxicity investigations are carried out on female NMRI mice (body weight 22 to 26 g). The animals (5 animals per dose) receive feed and water ad lib. Various doses of the substances are administered intravenously (duration of injection 1 minute). The observation period is 7 days. The LD50 (the dose at which 50% of the animals die) is determined by means of a linear regression.

Shay rats = assay: Antiulcerogenic action (protective action on the stomach) in Shay rats, pylorus ligature plus acetylsalicylic acid; type: in vivo, rat; conditions: for TQ LD50/ED50 (therapeutic quotient): LD50 i.v. mice / ED50 p.o. rats; for ED50: Rattus norvegicus, po, p.o. 1 hour before pylorus ligature, dose reducing ulcer index by 50% vs control, read-out: Protective action on the stomach ED50 administered perorally to rats
Experimental: The effect of the compounds according to the invention on the formation, in rats, of gastric ulcers provoked by a pylorus ligature and 100 mg/kg of acetylsalicyclic acid, (administered orally) is shown in table II.
ED50 = the dose which reduces the ulcer index for the group treated
by 50% compared with the control group
The anti-ulcerogenic action is tested by a method using the so-caled Shay rats:
(§1) Ulcers are provoked in rats which have been starved for 24 hours (female rats, 180 to 200 g, 4 animals in a cage with a high grille) by means of a pylorus ligature (under anaesthesia with diethyl ether) and oral administration of 100 mg/10 ml/kg of acetylsalicyclic acid. The substances to be tested are administered orally (10 ml/kg) 1 hour before the pylorus ligature. The closure of the wound is effected by means of Michel's clips. The animals are killed 4 hours afterwards under ether anaesthesia by dislocating the atlas, and the stomach is cut out. The stomach is opened longitudinally and is fixed on a cork slab, the quantity of gastric juice secreted (volume) and the hydrochloric acid content having been determined beforehand; the number and size (= diameter) of ulcers present are determined by means of a stereomicroscope at a 10-fold magnification. The product of the degree of severity (in accordance with the following rating scale) and the number of the ulcers is used as an individual ulcer index.
ulcer diameter 0.1-1.4 mm
The reduction in the average ulcer index in each group treated compared with that of the control group (=100%) is used as a measure of the anti-ulcerogenic effect. The ED50 indicates the dose which reduces the average ulcer index by 50%.

stomach secretion = assay: Inhibition of stomach secretion (volume and hydrochloric acid) in rats; type: in vivo, rat; conditions: 4 hours after administration of the antiulcerogenic ED50
Experimental: *% inhibition = inhibition (in %) of stomach secretion 4 hours after
administration of the antiulcerogenic ED50
as §1

| Compound | LD50 at 168 h [1] [mg/kg] | TQ LD50/ED50 (therapeutic quotient) (Shay rats) | ED50 (Shay rats) [mg/kg] | % inhibition of stomach secretion in rats, hydrochloric acid (stomach secretion) [%] | % inhibition of stomach secretion in rats, volume (stomach secretion) [%] | inhibitory effect (anti-ulcerogenic action) (Shay rats; 30 mg/kg, p.o., rats) | anti-ulcerogenic action at high dose (Shay rats; even at 300 mg/kg, rats) | dose/action curve (dose dependence of the action) (Shay rats; rats, p.o.) |
| --- | --- | --- | --- | --- | --- | --- | --- | --- |
| CN1CCN(CC(=O)N2c3ccccc3NC(=O)c3cncnc32)CC1 [Compound 2, 11-[(4-Methyl-1-piperazinyl)acetyl]-5,6-dihydropyrimido[4,5-b][1,5]benzodiazepin-5-one] | 180 | 15 | 12 | 5 | 10 |  |  |  |
| CN1C(=O)c2cnc(-c3ccccc3)nc2N(C(=O)CN2CCCCC2)c2ccccc21 [Compound 4, 6-Methyl-2-phenyl-11-piperidinoacetyl-5,6-dihydropyrimido[4,5-b][1,5]benzodiazepin-5-one] | 160 | ~ 20 | ~8 | 22 | 32 |  |  |  |
| CN(C)CCN(C)CC(=O)N1c2ccccc2N(C)C(=O)c2cnc(-c3ccccc3)nc21 [Compound 5, 11-[N-(2-dimethylaminoethyl)-N-methylamino]acetyl-6-methyl-2-phenyl-5,6-dihydropyrimido[4,5-b][1,5]benzodiazepin-5-one] |  |  | < 10 |  |  | up to 100% |  |  |
| CC1(C)[C@@H](OC(=O)CCC(=O)O)CC[C@]2(C)[C@H]3C(=O)C=C4[C@@H]5C[C@@](C)(C(=O)O)CC[C@]5(C)CC[C@@]4(C)[C@]3(C)CC[C@@H]12 [Compound 1, Carbenoxolone, reference compound] | 290 | ~ 4.1 | ~70 | 4 | 7 |  | not possible to achieve any substantial increase in the anti-ulcerogenic action | the dose/action curve then flattens out very considerably |
| CN1CCN(CC(=O)N2c3ccccc3N(C)C(=O)c3cnc(-c4ccccc4)nc32)CC1 [Compound 3, 6-Methyl-11-[(4-methyl-1-piperazinyl)acetyl]-2-phenyl-5,6-dihydropyrimido[4,5-b][1,5]benzodiazepin-5-one] | 95 | 10.5 | 9 |  | 7 |  |  |  |
